A short description of series [1]: Metabolite identification in cross-subject human plasma pool. The format is in vivo. Particulars: day 7, 0-24 h pool, multiple daily oral 15 mg Compound 1, n=8. The protocol:
The in vivo metabolism of Compound 1 was investigated in studies using rat, dog, rabbit, and human plasma and human urine samples from toxicology studies, an embryofetal development study, and a human clinical study.
Human plasma and urine samples originated from a human clinical study with subjects aged 65 years or older, dosed with 15 mg daily and achieving steady-state before day 7. Samples were stored at −75° C. or below from collection until analysis.
Human plasma samples from each Compound 1-dosed subject (15 mg; n=8) collected at day 7 at 0.25 h, 0.5 h, 1 h, 1.5 h, 2 h, 3 h, 4 h, 6 h, 8 h, 10 h, 12 h and 24 h after multiple daily oral administration were pooled for analysis. Plasma from placebo-dosed subjects (n=2) taken at the same time-points and pre-dose plasma collected on day 1 from Compound 1-dosed subjects were used as control for metabolite identification.
Time-normalized pooled plasma samples (day 7; 0-24 h) were prepared for each human subject treated with Compound 1 (15 mg; n=8) or with placebo (n=2) (see e.g., Hamilton et al, Clin. Pharmacol. Ther. 1983, 29(3):408-13). Composite time-normalized pooled plasma samples for human subjects dosed with Compound 1 or placebo were then prepared by combining an equal volume from the pooled sample prepared for each subject. A composite control plasma sample was prepared by combining an equal volume of pre-dose plasma from human subjects treated with Compound 1 (n=8).
Aliquots (100 μL) of the pooled plasma samples prepared for metabolite identification were treated with ice-cold acetonitrile (500 μL), mixed and centrifuged (2000 g; 4° C.; 10 min). […]
Samples were analysed by LC-MS, utilising a Vion Q-TOF mass spectrometer (Waters), Acquity I-class LC pumps, column heater, sample manager and photodiode array detector (Waters). […] Metabolite abundance was calculated as a percentage of total drug-related material in a given sample; the MS peak areas were collated and summed, and the abundance of each metabolite calculated as a percentage of the total in each sample. […]

Series [2] has as its system beagle dog hepatocytes. Briefly: Metabolite profile in cryopreserved beagle dog hepatocytes. Format: in vitro ADME. Particulars: 10 μM Compound 1, 120 min. The protocol:
(§1) Metabolite profile and metabolite identification of Compound 1 were studied in cryopreserved SD-rat, beagle dog and human hepatocytes. The incubations were conducted using 10 μM initial concentrations of test substance and sampling at 0 min, 60 min, and 120 min. The samples were analysed using UPLC/Q-TOF-MS. Incubation material and procedures are provided Table 1. The samples were thawed at room temperature (RT), centrifuged (10 min at 13000×g (Heraeus Pico 17 centrifuge), and the supernatants were pipetted to glass vials to wait for analysis. Analysis was performed using liquid chromatography-mass spectrometry (LC-MS) according to the parameters described in Table 2. The samples were thawed at room temperature (RT), centrifuged (10 min at 13000×g (Heraeus Pico 17 centrifuge), and the supernatants were pipetted to glass vials to wait for analysis.

Series [3] is described as follows: Metabolite identification in cross-subject human urine pool. The format is in vivo. Particulars: day 7, 0-24 h pool, multiple daily oral 15 mg Compound 1, n=8.
Protocol: Human urine samples from the Compound 1-dosed subjects (15 mg; n=8) collected at day 7 between 0-4 h, 4 h-8 h, 8 h-12 h and 12 h-24 h after multiple daily oral administration were also pooled for analysis. Urine from placebo-dosed subjects (n=2) collected at day 7 over the same time periods was used as control for metabolite identification.
A composite urine sample (day 7; 0-24 h) was prepared for each human subject treated with Compound 1 (15 mg; n=8) or with placebo (n=2) by combining proportional amounts of the sample collected over each time period. Composite cross-subject urine samples for human subjects dosed with Compound 1 or placebo were then prepared by combining proportional amounts of pooled urine from each subject. All urine pools were mixed and centrifuged (2000 g; 4° C.; 10 min) prior to analysis.
Samples were analysed by LC-MS, utilising a Vion Q-TOF mass spectrometer (Waters), Acquity I-class LC pumps, column heater, sample manager and photodiode array detector (Waters). The mass spectrometer was set to operate in positive ion mode and a number of experiments were performed to enable the acquisition of full scan and product ion data. […] Metabolite abundance was calculated as a percentage of total drug-related material in a given sample; the MS peak areas were collated and summed, and the abundance of each metabolite calculated as a percentage of the total in each sample. Based on apparent abundance, metabolites were categorized as ‘major’ if present at 10% or more of the total drug-related material, ‘minor’ if between 1 and <10% and ‘trace’ if <1%.
Series [4] concerns SD-rat hepatocytes. Description: Metabolite profile in cryopreserved SD-rat hepatocytes. Format: in vitro ADME. The following applies: 10 μM Compound 1, 120 min. On the procedure:
as §1

Series [5] concerns human hepatocytes. Briefly: Metabolite profile in cryopreserved human hepatocytes. The format is in vitro ADME. The following applies: 10 μM Compound 1, 120 min. On the procedure:
as §1

Series [6] is described as follows: Control incubation without cells. The format is in vitro ADME. The protocol:
as §1

Series [7] has as its system SD-rat, beagle dog and human hepatocytes. Briefly: Hepatocyte incubation, remaining abundance in all species. Format: in vitro ADME. The following applies: 10 μM. The protocol:
as §1

`Cn1nccc1C1CCN([C@H]2C[C@]3(CCNC3)C2)CC1` [Compound M4]: in series [1], the “% Abundance in Sample, Plasma (% of total drug-related material)” value (shortened to “% Abundance in Sample, Plasma”) turned out to be 11.4%. Besides, in series [2], the “Metabolite profile, Dog 120 min, %” value is reported as 4.6%. Moreover, the “% Abundance in Sample, Urine (% of total drug-related material)” value (“% Abundance in Sample, Urine” for short) in series [3] is recorded as 26.4%. For the same compound, the “Metabolite profile, Rat 120 min, %” value in series [4] is recorded as 4.9%. Moreover, the “Metabolite profile, Human 120 min, %” value in series [5] was found to be 13.8%.
For the compound `CCOC(=O)N1CC[C@]2(C1)C[C@@H](N1CCC(c3ccn[nH]3)CC1)C2` [Compound M2], the “% Abundance in Sample, Plasma” value in series [1] was 2.3%. In addition, the “% Abundance in Sample, Urine” value in series [3] is given as 3.3%. The “Metabolite profile, Rat 120 min, %” value in series [4] stood at 0.1%. Also, the “Metabolite profile, Human 120 min, %” value in series [5] was 0.3%.
With `CCOC(=O)N1CC[C@]2(C1)C[C@@H](N1CCC(c3ccnn3C)CC1)C2` [Compound 1, cis ethyl 2-[4-(1-methyl-1H-pyrazol-5-yl)piperidin-1-yl]-6-azaspiro[3.4]octane-6-carboxylate], in series [6] (incubation without cells, 10 μM, 120 min), the “Metabolite profile, No cells 120 min, %” value came out at 100%. Also, the “disappearance in the control incubation without cells” value in series [6] (without cells) is listed as “Practically no disappearance”. Moreover, the “% Abundance in Sample, Plasma” value in series [1] came to 82.0%. Also, the “Metabolite profile, Dog 120 min, %” value in series [2] is 94.9%. Also, the “% Abundance in Sample, Urine” value in series [3] is given as 63.3%. For the same compound, the “remaining abundances after 120 min incubation period” value in series [7] was 79-93%. Besides, the “Metabolite profile, Rat 120 min, %” value in series [4] turned out to be 93.7%. For the same compound, the “Metabolite profile, Human 120 min, %” value in series [5] amounted to 84.0%.
